ChEMBL document CHEMBL4840332, “Pd-Catalyzed Direct Diversification of Natural Anti-Alzheimer's Disease Drug: Synthesis and Biological Evaluation of N-Aryl Huperzine A Analogues” (J Nat Prod, 2021)
The source made the active and inactive calls. No cut-off for these calls is given here.

Columns and labels:
SH-SY5Y = assay: Neuroprotective activity against H2O2-induced oxidative stress in human SH-SY5Y cells assessed as cell viability at 50 uM pretreated for 1 hr followed by H2O2 addition and measured after 4 hrs by MTT assay relative to control; type: functional; conditions: time 5 hrs, read-out: Activity
Acetylcholinesterase = Acetylcholinesterase (Electrophorus electricus, UniProt O42275); assay: Inhibition of electric eel AChE using acetylthiocholine chloride as a substrate incubated for 20 mins followed by substrate addition and measured after 20 mins by Ellman's method
[1] = molecular target: Acetylcholinesterase (Electrophorus electricus) (UniProt O42275); assay: Inhibition of electric eel AChE at 100 uM using acetylthiocholine chloride as a substrate incubated for 20 mins followed by substrate addition and measured after 20 mins by Ellman's method relative to control; conditions: time 40.0 min
[2] = molecular target: Acetylcholinesterase (Electrophorus electricus) (UniProt O42275); assay: Inhibition of electric eel AChE at 100 uM using acetylthiocholine chloride as a substrate incubated for 20 mins followed by substrate addition and measured after 20 mins by Ellman's method; conditions: time 40.0 min
[3] = molecular target: Acetylcholinesterase (Electrophorus electricus) (UniProt O42275); assay: Potency index, ratio of HPA IC50 to test compound IC50 for inhibition of electric eel AChE using acetylthiocholine chloride as a substrate incubated for 20 mins followed by substrate addition and measured after 20 mins by Ellman's method; conditions: time 40.0 min

Acetylcholinesterase (Electrophorus electricus), sequence (O42275 24-633 limits assumed): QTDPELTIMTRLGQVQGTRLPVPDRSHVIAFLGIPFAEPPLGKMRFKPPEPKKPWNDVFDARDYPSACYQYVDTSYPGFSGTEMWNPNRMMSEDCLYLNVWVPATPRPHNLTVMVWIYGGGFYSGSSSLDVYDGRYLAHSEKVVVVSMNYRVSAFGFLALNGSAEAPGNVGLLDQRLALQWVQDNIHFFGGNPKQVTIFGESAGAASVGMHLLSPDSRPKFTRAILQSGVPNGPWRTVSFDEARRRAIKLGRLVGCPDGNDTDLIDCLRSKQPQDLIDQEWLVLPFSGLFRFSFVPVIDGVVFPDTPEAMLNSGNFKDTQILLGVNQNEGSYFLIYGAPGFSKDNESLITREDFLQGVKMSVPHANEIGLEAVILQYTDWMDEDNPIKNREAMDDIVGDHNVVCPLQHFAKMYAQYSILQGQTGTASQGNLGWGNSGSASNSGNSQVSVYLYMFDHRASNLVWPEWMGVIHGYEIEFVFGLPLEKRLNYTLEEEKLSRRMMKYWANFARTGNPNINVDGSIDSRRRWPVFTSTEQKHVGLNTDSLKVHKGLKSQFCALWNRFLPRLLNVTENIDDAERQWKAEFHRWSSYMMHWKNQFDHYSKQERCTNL
Acetylcholinesterase, sequence (O42275 whole entry): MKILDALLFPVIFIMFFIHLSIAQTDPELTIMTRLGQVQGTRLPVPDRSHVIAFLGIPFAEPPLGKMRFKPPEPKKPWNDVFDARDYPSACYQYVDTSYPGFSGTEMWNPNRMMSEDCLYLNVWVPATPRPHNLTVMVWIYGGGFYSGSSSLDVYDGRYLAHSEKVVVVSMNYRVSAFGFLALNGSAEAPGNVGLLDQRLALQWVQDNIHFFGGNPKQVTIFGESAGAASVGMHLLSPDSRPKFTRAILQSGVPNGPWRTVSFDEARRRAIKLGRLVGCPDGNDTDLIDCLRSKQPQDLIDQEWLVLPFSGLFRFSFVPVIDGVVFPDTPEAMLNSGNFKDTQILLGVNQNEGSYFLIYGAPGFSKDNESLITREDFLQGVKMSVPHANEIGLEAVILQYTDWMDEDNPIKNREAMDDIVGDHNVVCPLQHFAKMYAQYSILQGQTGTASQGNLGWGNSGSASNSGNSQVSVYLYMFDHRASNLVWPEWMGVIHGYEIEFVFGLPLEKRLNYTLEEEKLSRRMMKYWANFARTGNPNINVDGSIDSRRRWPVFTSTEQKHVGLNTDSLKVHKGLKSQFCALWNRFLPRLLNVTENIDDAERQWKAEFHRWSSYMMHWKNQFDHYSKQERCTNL

| SMILES | viability at 50 µM (SH-SY5Y) | IC50 (Acetylcholinesterase) | inhibition [1] | also measured |
| --- | --- | --- | --- | --- |
| C/C=C1\[C@H]2C=C(C)C[C@]1(Nc1c(C)cc(OC)cc1C)c1ccc(=O)[nH]c1C2 | > 100% | 3.9 µM | 96% | – |
| C/C=C1\[C@H]2C=C(C)C[C@]1(Nc1ncc(C)cc1C)c1ccc(=O)[nH]c1C2 | > 100% | 43 µM | > 92% | – |
| C/C=C1\[C@H]2C=C(C)C[C@]1(Nc1ccc3c(c1)OCO3)c1ccc(=O)[nH]c1C2 | > 100% | – | – | – |
| C/C=C1\[C@H]2C=C(C)C[C@]1(Nc1ncccc1C)c1ccc(=O)[nH]c1C2 | – | 40 µM | > 92% | – |
| C/C=C1\[C@H]2C=C(C)C[C@]1(Nc1cccc(C)c1)c1ccc(=O)[nH]c1C2 | > 100% | 47 µM | > 92% | – |
| C/C=C1\[C@H]2C=C(C)C[C@]1(Nc1cc(C)ccn1)c1ccc(=O)[nH]c1C2 | > 100% | – | – | inhibition [2]: Active |
| C/C=C1\[C@H]2C=C(C)C[C@]1(Nc1ccc(OC)cn1)c1ccc(=O)[nH]c1C2 | 144% | 1.5 µM | 106% | Ratio IC50 [3]: 7.6 |
| C/C=C1\[C@H]2C=C(C)C[C@]1(Nc1ccc(Cl)cc1)c1ccc(=O)[nH]c1C2 | – | – | – | inhibition [2]: Active |
| C/C=C1\[C@H]2C=C(C)C[C@]1(Nc1ccc(C)cc1)c1ccc(=O)[nH]c1C2 | > 100% | – | – | – |
| C/C=C1\[C@H]2C=C(C)C[C@]1(Nc1cccc(F)c1)c1ccc(=O)[nH]c1C2 | – | – | – | inhibition [2]: Active |
| C/C=C1\[C@H]2C=C(C)C[C@]1(Nc1cccc(C)n1)c1ccc(=O)[nH]c1C2 | > 100% | – | – | – |
| C/C=C1\[C@H]2C=C(C)C[C@]1(Nc1ccc(F)cc1)c1ccc(=O)[nH]c1C2 | – | 4.5 µM | > 92% | – |
| C/C=C1\[C@H]2C=C(C)C[C@]1(Nc1cccc3ncccc13)c1ccc(=O)[nH]c1C2 | > 100% | – | – | – |
| C/C=C1\[C@H]2C=C(C)C[C@]1(Nc1cc(C)cc(C)c1)c1ccc(=O)[nH]c1C2 | > 100% | – | – | – |
| C/C=C1\[C@H]2C=C(C)C[C@]1(Nc1ncccc1OC)c1ccc(=O)[nH]c1C2 | – | – | – | inhibition [2]: Active |
| C/C=C1\[C@H]2C=C(C)C[C@]1(Nc1cccc(OC)c1)c1ccc(=O)[nH]c1C2 | – | – | – | inhibition [2]: Active |
| C/C=C1\[C@H]2C=C(C)C[C@]1(Nc1ccc(OCC)cc1)c1ccc(=O)[nH]c1C2 | > 100% | – | – | – |
